We go through eleven compounds from US20140235533A1, “DIHYDROFURAN DERIVATIVES AS INSECTICIDAL COMPOUNDS” (SYNGENTA PARTICIPATIONS AG, priority 2011, published 2014).

The first test relates to Plutella xylostella. The test can be described thus: Plutella xylostella (diamond back moth) artificial diet MTP test. Format: in vivo. The conditions noted are these: 144 h, 200 ppm (concentration in well 18 ppm), L2 larvae, larval mortality and growth regulation after 6 days. Here is the method:
Plutella xylostella (Diamond Back Moth): 24-well microtiter plate (MTP) with artificial diet was treated with test solutions at an application rate of 200 ppm (concentration in well 18 ppm) by pipetting. After drying, the MTPs were infested with L2 larvae (7-12 per well). After an incubation period of 6 days, samples were checked for larval mortality and growth regulation.
The pest or weed control is the degree to which the test organism was suppressed or injured, in per cent. High values mean strong suppression, low ones weak suppression. `O=C(NCc1ccc(C2=COC(c3cc(Cl)cc(Cl)c3)(C(F)(F)F)C2)cc1Cl)c1cnnc2ccccc12` (stereo not shown) [Compound A34, N-[[2-chloro-4-[2-(3,5-dichlorophenyl)-2-(trifluoromethyl)-3H-furan-4-yl]phenyl]methyl]cinnoline-4-carboxamide] showed a pest or weed control at 200 ppm of no less than 80%.

The compound `O=C(NCc1ccc(C2=COC(c3cc(Cl)cc(Cl)c3)(C(F)(F)F)C2)cc1Cl)c1cc(Cl)ccc1Cl` (stereo not shown) [Compound A28, 2,5-dichloro-N-[[2-chloro-4-[2-(3,5-dichlorophenyl)-2-(trifluoromethyl)-3H-furan-4-yl]phenyl]methyl]benzamide] came in with a pest or weed control at 200 ppm of no less than 80%.

Regarding `O=C(/C=C/c1ccco1)NCc1ccc(C2=COC(c3cc(Cl)cc(Cl)c3)(C(F)(F)F)C2)cc1Cl` (stereo not shown) [Compound A10, (E)-N-[[2-chloro-4-[2-(3,5-dichlorophenyl)-2-(trifluoromethyl)-3H-furan-4-yl]phenyl]methyl]-3-(2-furyl)prop-2-enamide], the pest or weed control at 200 ppm is no less than 80%.

In another test the test system is Heliothis virescens. Kind of test: Heliothis virescens (tobacco budworm) egg test on artificial diet. Format: in vivo. The conditions noted are these: 96 h, 200 ppm (concentration in well 18 ppm), eggs 0-24 h old on artificial diet, egg mortality, larval mortality, growth regulation after 4 days. Here is the method:
Heliothis virescens (Tobacco Budworm):
Eggs (0-24 h old) were placed in 24-well microtiter plate on artificial diet and treated with test solutions at an application rate of 200 ppm (concentration in well 18 ppm) by pipetting. After an incubation period of 4 days, samples were checked for egg mortality, larval mortality, and growth regulation. The following compound gave at least 80% control of Heliothis virescens: A1, A2, A03, A05, A06, A07, A08, A09, A10, A11, A12, A13, A14, A15, A16, A17, A18, A19, A20, A21, A22, A25, A26, A27, A31, A32, A34, A37, A39, A40, A42, A44, A45, A46, A47, A48, A49, A50, A51, A52, A53, B1**.
In turn, `O=C(NCc1ccc(C2=COC(c3cc(Cl)cc(Cl)c3)(C(F)(F)F)C2)cc1Cl)c1ccc(-c2ccccn2)s1` (stereo not shown) [Compound A42, N-[[2-chloro-4-[2-(3,5-dichlorophenyl)-2-(trifluoromethyl)-3H-furan-4-yl]phenyl]methyl]-5-(2-pyridyl)thiophene-2-carboxamide] gave a pest or weed control at 200 ppm of no less than 80%.

Consider `Cc1onc(-c2ccccc2)c1C(=O)NCc1ccc(C2=COC(c3cc(Cl)cc(Cl)c3)(C(F)(F)F)C2)cc1Cl` (stereo not shown) [Compound A45, N-[[2-chloro-4-[2-(3,5-dichlorophenyl)-2-(trifluoromethyl)-3H-furan-4-yl]phenyl]methyl]-5-methyl-3-phenyl-isoxazole-4-carboxamide], for which the pest or weed control at 200 ppm is no less than 80%.

For the compound `O=C(/C=C/c1ccccc1Cl)NCc1ccc(C2=COC(c3cc(Cl)cc(Cl)c3)(C(F)(F)F)C2)cc1Cl` (stereo not shown) [Compound A17, (E)-N-[[2-chloro-4-[2-(3,5-dichlorophenyl)-2-(trifluoromethyl)-3H-furan-4-yl]phenyl]methyl]-3-(2-chlorophenyl)prop-2-enamide], the pest or weed control at 200 ppm is no less than 80%.

`O=C(NCc1ccc(C2=COC(c3cc(Cl)cc(Cl)c3)(C(F)(F)F)C2)cc1Cl)c1cnnc2ccccc12` (stereo not shown) [Compound A34, N-[[2-chloro-4-[2-(3,5-dichlorophenyl)-2-(trifluoromethyl)-3H-furan-4-yl]phenyl]methyl]cinnoline-4-carboxamide] registered a pest or weed control at 200 ppm of no less than 80%.

The compound `O=C(NCc1ccc(C2=COC(c3cc(Cl)cc(Cl)c3)(C(F)(F)F)C2)cc1Cl)c1ccc2nsnc2c1` (stereo not shown) [Compound A21, N-[[2-chloro-4-[2-(3,5-dichlorophenyl)-2-(trifluoromethyl)-3H-furan-4-yl]phenyl]methyl]-2,1,3-benzothiadiazole-5-carboxamide] showed a pest or weed control at 200 ppm of no less than 80%.

For `O=C(NCc1ccc(C2=COC(c3cc(Cl)cc(Cl)c3)(C(F)(F)F)C2)cc1Cl)c1ccc2c(c1)OCCCO2` (stereo not shown) [Compound A32, N-[[2-chloro-4-[2-(3,5-dichlorophenyl)-2-(trifluoromethyl)-3H-furan-4-yl]phenyl]methyl]-3,4-dihydro-2H-1,5-benzodioxepine-7-carboxamide], the pest or weed control at 200 ppm is no less than 80%.

`O=C(/C=C/c1ccco1)NCc1ccc(C2=COC(c3cc(Cl)cc(Cl)c3)(C(F)(F)F)C2)cc1Cl` (stereo not shown) [Compound A10, (E)-N-[[2-chloro-4-[2-(3,5-dichlorophenyl)-2-(trifluoromethyl)-3H-furan-4-yl]phenyl]methyl]-3-(2-furyl)prop-2-enamide] yielded a pest or weed control at 200 ppm of no less than 80%.

For `O=C(COc1ccc(Cl)cc1)NCc1ccc(C2=COC(c3cc(Cl)cc(Cl)c3)(C(F)(F)F)C2)cc1Cl` (stereo not shown) [Compound A25, N-[[2-chloro-4-[2-(3,5-dichlorophenyl)-2-(trifluoromethyl)-3H-furan-4-yl]phenyl]methyl]-2-(4-chlorophenoxy)acetamide], the pest or weed control at 200 ppm was no less than 80%.

Compound `O=C(NCc1ccc(C2=COC(c3cc(Cl)cc(Cl)c3)(C(F)(F)F)C2)cc1Cl)c1ccc2sccc2c1` (stereo not shown) [Compound A37, N-[[2-chloro-4-[2-(3,5-dichlorophenyl)-2-(trifluoromethyl)-3H-furan-4-yl]phenyl]methyl]benzothiophene-5-carboxamide] displayed a pest or weed control at 200 ppm of no less than 80%.

On to `O=C(/C=C/c1ccccc1F)NCc1ccc(C2=COC(c3cc(Cl)cc(Cl)c3)(C(F)(F)F)C2)cc1Cl` (stereo not shown) [Compound A16, (E)-N-[[2-chloro-4-[2-(3,5-dichlorophenyl)-2-(trifluoromethyl)-3H-furan-4-yl]phenyl]methyl]-3-(2-fluorophenyl)prop-2-enamide], for which the pest or weed control at 200 ppm is no less than 80%.
